Among the test systems are NCI-H460 lung; NCI-H522 lung; KM12 colon; M14 melanoma; HOP-92 NSCLC; COLO 205 colon; T-47D breast; MCF7 breast; UACC-257 melanoma; CCRF-CEM leukemia.
Common to all, as to assay: NCI tumour cell line growth inhibition, 48 h

Values joined by “and” are separate entries in the source; they are usually repeats but may differ in a detail not shown here. Equal values may be shown once.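 Each compound was tested at five concentrations against cells in 96-well plates for 48 hours. The concentration for 50% growth inhibition is given as GI50. Definition used: TGI = concentration required for complete inhibition of growth.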

For the compound `CCCCCCCCCCC(C(O)c1ccccc1)N1CCCCC1` (stereo unspecified), the GI50 in the assay on NCI-H460 lung is 1.84 µM; with NCI-H522 lung, 1.94 µM; in the assay on KM12 colon, 1.29 µM; in the assay on M14 melanoma, 1.87 µM; with HOP-92 NSCLC, 1.82 µM; with COLO 205 colon it was 1.54 µM. In addition, the GI50 with T-47D breast was 1.91 µM; with MCF7 breast, 1.87 µM; in the assay on UACC-257 melanoma it was 2.02 µM; in the assay on CCRF-CEM leukemia, 1.97 µM. Moreover, the TGI was 3.36 µM in the assay with NCI-H460 lung; 3.91 µM in the assay on NCI-H522 lung; 2.72 µM in the assay on KM12 colon; 3.47 µM in the assay with M14 melanoma; 3.83 µM with HOP-92 NSCLC; 2.93 µM in the assay with COLO 205 colon. Further, the TGI in the assay on T-47D breast amounted to 4.35 µM; in the assay on MCF7 breast, 3.43 µM; with UACC-257 melanoma, 4.28 µM; in the assay with CCRF-CEM leukemia, 7.77 µM.
For the compound `COC(=O)CCC1CCC(c2cc(F)ccc2F)(S(=O)(=O)c2ccc(Cl)cc2)CC1` (stereo unspecified), the GI50 is 52.1 µM in the assay with NCI-H460 lung; 62.4 µM in the assay on NCI-H522 lung; 62.1 µM in the assay with KM12 colon; 55.4 µM in the assay with M14 melanoma; 15.4 µM in the assay with HOP-92 NSCLC; more than 100 µM in the assay with COLO 205 colon. Further, the GI50 in the assay with T-47D breast was 39.3 µM; with MCF7 breast, 70.2 µM; with UACC-257 melanoma, 48.9 µM; with CCRF-CEM leukemia, more than 100 µM. Also, the TGI in the assay with NCI-H460 lung, with NCI-H522 lung, in the assay on KM12 colon, in the assay with M14 melanoma, in the assay with HOP-92 NSCLC and in the assay with COLO 205 colon was more than 100 µM in each case. Besides, the TGI with T-47D breast, with MCF7 breast, in the assay with UACC-257 melanoma and with CCRF-CEM leukemia was more than 100 µM in each case.
Take `COc1ccc(/C=C(\C#N)n2nnc3ccccc32)cc1`: the GI50 in the assay on NCI-H460 lung was 0.322 µM; in the assay on NCI-H522 lung it was 0.0336 µM; in the assay on KM12 colon, 0.0948 µM; in the assay on M14 melanoma, 0.071 µM; with HOP-92 NSCLC, 0.272 µM; in the assay with COLO 205 colon it was 0.0849 µM. Also, the GI50 in the assay with T-47D breast is 0.0865 µM; in the assay with MCF7 breast, 0.328 µM; in the assay with UACC-257 melanoma, 4.92 µM; in the assay with CCRF-CEM leukemia, 0.295 µM. For the same compound, the TGI was 7.88 µM with NCI-H460 lung; more than 34.1 µM in the assay on NCI-H522 lung; more than 21.7 µM with KM12 colon; 2.02 µM in the assay on M14 melanoma; 3.47 µM in the assay with HOP-92 NSCLC; 1.31 µM in the assay with COLO 205 colon. The TGI was 72.9 µM in the assay on T-47D breast, more than 100 µM in the assay on MCF7 breast, more than 100 µM in the assay on UACC-257 melanoma and more than 100 µM with CCRF-CEM leukemia.
As for `C=C(C)[C@@H]1CC[C@]2(C)[C@H](CC=C3[C@@H]4[C@@H](C)[C@H](C)CC[C@]4(C(N)=O)CC[C@]32C)[C@@]1(C)CCC#N`, the GI50 is 8.35 µM with NCI-H460 lung; 3.56 µM in the assay with NCI-H522 lung; 3.47 µM in the assay on KM12 colon; 4.08 µM in the assay with M14 melanoma; 2.57 µM with HOP-92 NSCLC; 4.01 µM in the assay on COLO 205 colon. Further, the GI50 is 2.85 µM in the assay with T-47D breast, 3.59 µM with MCF7 breast, 5.39 µM in the assay with UACC-257 melanoma and 3.73 µM in the assay with CCRF-CEM leukemia. The TGI in the assay with NCI-H460 lung was 29.6 µM; with NCI-H522 lung, 50.9 µM; in the assay with KM12 colon, 23.2 µM; in the assay with M14 melanoma it was 23.6 µM; in the assay on HOP-92 NSCLC, 9.05 µM; in the assay on COLO 205 colon, 15.6 µM. In addition, the TGI was more than 100 µM with T-47D breast, more than 100 µM with MCF7 breast, 76.5 µM in the assay with UACC-257 melanoma and 45 µM in the assay with CCRF-CEM leukemia.
For the compound `CC(C)c1c(O)ccc2c1CCC1C(C)(C)CCCC21C` (stereo unspecified), the TGI worked out at 31.7 µM with NCI-H460 lung; 34.6 µM in the assay on NCI-H522 lung; 42.7 µM with KM12 colon; 30.2 µM in the assay with M14 melanoma; 32.8 µM in the assay with HOP-92 NSCLC; 32 µM with COLO 205 colon. The TGI in the assay on T-47D breast worked out at 5.75 µM; with MCF7 breast, 35.3 µM; in the assay with UACC-257 melanoma, 32.2 µM; in the assay with CCRF-CEM leukemia it was 49.3 µM.
With `Clc1ccc2nnnn2n1`, the GI50 with NCI-H460 lung was 3.26 µM; in the assay on NCI-H522 lung, 3.01 µM; in the assay on KM12 colon, 2.08 µM; in the assay with M14 melanoma, 1.98 µM; in the assay with HOP-92 NSCLC, 4.15 µM; in the assay on COLO 205 colon, 2.03 µM. Also, the GI50 was 6.25 µM in the assay with T-47D breast, 3.11 µM in the assay with MCF7 breast, 16.1 µM with UACC-257 melanoma and 3.74 µM with CCRF-CEM leukemia. Also, the TGI with NCI-H460 lung is 12 µM; in the assay with NCI-H522 lung it was 11.2 µM; with KM12 colon, 4.87 µM; with M14 melanoma, 6.26 µM; with HOP-92 NSCLC, 27 µM; with COLO 205 colon, 3.81 µM. The TGI with T-47D breast came out at 24 µM; with MCF7 breast it was 14.3 µM; with UACC-257 melanoma, 56.9 µM; in the assay on CCRF-CEM leukemia it was 29.8 µM.
`Oc1[nH]c2c(Br)cccc2c1C1=Nc2ccccc2/C1=N/OCCN1CCCC1`: the GI50 in the assay on NCI-H460 lung is 0.325 µM; with NCI-H522 lung it was 0.847 µM; with KM12 colon, 0.708 µM and 0.501 µM; in the assay on M14 melanoma, 1.94 µM; in the assay with HOP-92 NSCLC, 1.04 µM; in the assay on COLO 205 colon it was 0.524 µM. Moreover, the GI50 in the assay with T-47D breast is 3.51 µM; in the assay with MCF7 breast, 0.781 µM and 0.57 µM; in the assay with UACC-257 melanoma, 2.67 µM; with CCRF-CEM leukemia, 0.741 µM and 1.12 µM. Also, the TGI is 2.4 µM in the assay with NCI-H460 lung; 3.4 µM in the assay with NCI-H522 lung; more than 100 µM in the assay with KM12 colon; 3.12 µM in the assay with HOP-92 NSCLC; 4.81 µM in the assay on COLO 205 colon; more than 100 µM in the assay with MCF7 breast.
Turning to `CN(C)CC1C(=O)O[C@H]2[C@H]1CC/C(COC(=O)c1cc3ccccc3[nH]1)=C\CC[C@@]1(C)O[C@@H]21` (stereo partly specified), the GI50 was 7.35 µM in the assay on NCI-H460 lung; 1.32 µM with NCI-H522 lung; 3.23 µM in the assay on KM12 colon; 1.76 µM in the assay on M14 melanoma; 1.53 µM in the assay on HOP-92 NSCLC; 2.16 µM in the assay on COLO 205 colon. The GI50 in the assay on T-47D breast was 2.19 µM; in the assay on MCF7 breast, 1.01 µM; with UACC-257 melanoma, 1.47 µM; in the assay on CCRF-CEM leukemia, 0.432 µM. The TGI came out at 25.6 µM with NCI-H460 lung; 3.05 µM with NCI-H522 lung; 10.8 µM in the assay with KM12 colon; 4.29 µM in the assay with M14 melanoma; 3.62 µM with HOP-92 NSCLC; 5.5 µM with COLO 205 colon. The TGI in the assay with T-47D breast is 5.54 µM; in the assay on MCF7 breast, 4.55 µM; in the assay on UACC-257 melanoma it was 3.24 µM; in the assay with CCRF-CEM leukemia, 15.9 µM.
